Laboratory results as given in patent US7524962B2, “Biphenyl compounds useful as muscarinic receptor antagonists” (Theravance, Inc., priority 2004, dated 2009).

Biological target: T1, hM3 muscarinic receptor subtype (Homo sapiens, UniProt P20309)
T1 construct: expressed in transfected cells; crude membranes
Assay: Radioligand binding assay ([3H]-NMS displacement), CHO cell membranes
Conditions: [3H]-NMS at 1 nM, CHO cell membranes expressing hM3, 60 minutes at 37° C.; read-out: Ki value for the M3 muscarinic receptor subtype
Experimental: A. Membrane Preparation from Cells Expressing hM1, hM2, hM3 and hM4 Muscarinic Receptor Subtypes
CHO (Chinese hamster ovary) cell lines stably expressing cloned human hM1, hM2, hM3 and hM4 muscarinic receptor subtypes, respectively, were grown to near confluency in medium consisting of HAM's F-12 supplemented with 10% FBS (Fetal Bovine Serum) and 250 μg/mL Geneticin. The cells were grown in a 5% CO2, 37° C. incubator and lifted with 2 mM EDTA in dPBS. Cells were collected by 5 minute centrifugation at 650×g, and cell pellets were either stored frozen at −80° C. or membranes were prepared immediately. […] The protein concentration of the membrane suspension was determined by the method described in Lowry, O. et al., Journal of Biochemistry 193:265 (1951). […]
Radioligand binding assays were performed in 96-well microtiter plates in a total assay volume of 100 μL. […] Filter plates were rinsed three times with wash buffer (10 mM HEPES) to remove unbound radioactivity. […] The plates were then counted in a PerkinElmer Topcount liquid scintillation counter (PerkinElmer Inc., Wellesley, Mass.). Binding data were analyzed by nonlinear regression analysis with the GraphPad Prism Software package (GraphPad Software, Inc., San Diego, Calif.) using the one-site competition model. […]

T1 sequence (P20309 whole entry): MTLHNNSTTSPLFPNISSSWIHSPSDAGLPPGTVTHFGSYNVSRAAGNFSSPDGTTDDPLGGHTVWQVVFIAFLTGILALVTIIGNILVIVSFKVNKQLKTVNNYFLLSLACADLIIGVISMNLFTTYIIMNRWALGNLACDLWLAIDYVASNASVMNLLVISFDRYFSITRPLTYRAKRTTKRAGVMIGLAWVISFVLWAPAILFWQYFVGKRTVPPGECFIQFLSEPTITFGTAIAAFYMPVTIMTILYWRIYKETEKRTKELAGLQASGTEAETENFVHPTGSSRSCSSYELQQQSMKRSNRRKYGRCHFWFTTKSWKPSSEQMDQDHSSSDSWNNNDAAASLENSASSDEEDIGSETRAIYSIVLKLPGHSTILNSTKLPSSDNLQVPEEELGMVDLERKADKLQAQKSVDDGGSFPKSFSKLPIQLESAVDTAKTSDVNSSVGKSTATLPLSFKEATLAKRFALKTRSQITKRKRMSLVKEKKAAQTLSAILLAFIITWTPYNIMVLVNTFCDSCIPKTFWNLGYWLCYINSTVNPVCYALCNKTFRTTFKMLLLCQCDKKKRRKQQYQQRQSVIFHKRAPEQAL

- Ki: < 5 nM
Structure (SMILES): NC(=O)C1CCN(CCCCCNC(=O)CCN2CCC(OC(=O)Nc3ccccc3-c3ccccc3)CC2)CC1 [Example 1, Biphenyl-2-ylcarbamic Acid 1-{2-[5-(4-Carbamoylpiperidin-1-yl)pentylcarbamoyl]ethyl}piperidin-4-yl Ester]
